{"source": "paper PMC3713324", "about": "“Polyisoprenylated Methylated Protein Methyl Esterase Is Both Sensitive to Curcumin and Overexpressed in Colorectal Cancer: Implications for Chemoprevention and Treatment” (BioMed Research International, 2013)", "target": "T1, polyisoprenylated methylated protein methyl esterase (PMPMEase) (Sus scrofa, UniProt Q29550)", "T1 construct": "purified PMPMEase", "T1 sequence (Q29550 19-566)": "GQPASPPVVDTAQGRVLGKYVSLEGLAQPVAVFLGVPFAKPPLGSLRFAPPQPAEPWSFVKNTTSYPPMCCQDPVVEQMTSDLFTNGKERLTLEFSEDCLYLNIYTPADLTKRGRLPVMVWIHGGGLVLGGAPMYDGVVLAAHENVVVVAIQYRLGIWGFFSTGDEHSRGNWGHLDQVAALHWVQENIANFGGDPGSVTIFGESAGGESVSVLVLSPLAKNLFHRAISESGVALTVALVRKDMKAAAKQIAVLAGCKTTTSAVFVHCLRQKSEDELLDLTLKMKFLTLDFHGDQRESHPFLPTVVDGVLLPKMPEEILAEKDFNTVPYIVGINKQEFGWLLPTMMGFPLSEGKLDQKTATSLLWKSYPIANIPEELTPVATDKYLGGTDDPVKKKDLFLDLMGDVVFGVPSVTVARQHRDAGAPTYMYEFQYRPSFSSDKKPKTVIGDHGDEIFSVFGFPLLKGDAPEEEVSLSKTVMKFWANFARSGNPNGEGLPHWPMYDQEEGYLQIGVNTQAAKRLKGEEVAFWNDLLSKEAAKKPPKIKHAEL", "assay": "RP-HPLC assay of RD-PNB hydrolysis by purified enzyme; Michaelis-Menten kinetics; reversibility by gel filtration", "format": "biochemical"}
{"smiles": "COc1cc(/C=C/C(=O)CC(=O)/C=C/c2ccc(O)c(OC)c2)ccc1O", "note": "[curcumin]", "values": [{"measurement": "Ki", "value": 310, "unit": "nM"}]}
